Results as given in US4803209A, “Substituted 2,3-diphenyl-1,2-dihydroquinoxalines” (International Minerals & Chemical Corp., priority 1987, dated 1989).
Where two headings read alike, the source gives them in different places. Where a SMILES comes first, the peptide text is derived from it. Bridges are numbered along the chain shown (N, C = ends). [ ]: non-standard residue; d: D form. The star is where a group is joined. Ileψ(thiazoline)Cys = CC[C@H](C)[C@H](N)C1=N[C@H](C(=O)*)CS1; dOrn = NCCC[C@@H](N)C(=O)O

Experiments:
[1] = Growth promotion and feed utilization in chicks; type: in vivo, chicks (broiler cockerels); conditions: 8 weeks
[2] = system: antibiotic resistant E. coli (E.C. 324); type: cell-based; conditions: Gram Neg., 6 h, 37° C., aerobic
[3] = system: Streptococcus sp. 1 X A7 (Strep A7); type: cell-based
Salmonella typhimurium = type: cell-based
[4] = system: Bacteroides fragilis (Bf); test: Antimicrobial growth inhibition, Bf; type: cell-based; conditions: Anaerobic, 6 h, 37° C.
[5] = system: Streptococcus sp. 1 X C15 (Strep C15); type: cell-based
[6] = system: Clostridium perfringens (Cp); type: cell-based; conditions: Anaerobic, 6 h, 37° C.
[7] = system: E. coli strain 046 (E.C. 046); type: cell-based
[8] = system: Eimeria tenella Eli Lilly Strain 65 (Lilly 65); test: In vitro anticoccidial test in chick kidney cell monolayers; type: cell-based; conditions: 72 h, 3 days, read-out: % Inhibition of Coccidia
[9] = experiment set 1, 75 ppm in feed
[10] = experiment set 3, 50 ppm in feed
[11] = experiment set 4, 50 ppm in feed
[12] = experiment set 2, 50 ppm in feed
[13] = experiment set 5, 50 ppm in feed

Molecule | Growth of E.C. 324 in the presence of the test compound ([2]; 6.4 ppm) | Growth of E.C. 324 in the presence of the test compound ([2]; 64 ppm) | Growth of Strep A7 in the presence of the test compound ([3]; 6.4 ppm) | Growth of Strep A7 in the presence of the test compound ([3]; 64 ppm) | Growth of S.T. in the presence of the test compound (Salmonella typhimurium; 6.4 ppm) | Growth of S.T. in the presence of the test compound (Salmonella typhimurium; 64 ppm) | Growth of Bf in the presence of the test compound ([4]; 6.4 ppm) | Growth of Bf in the presence of the test compound ([4]; 64 ppm) | Growth of Strep C15 in the presence of the test compound ([5]; 6.4 ppm) | Growth of Strep C15 in the presence of the test compound ([5]; 64 ppm) | Growth of Cp in the presence of the test compound ([6]; 6.4 ppm) | Growth of Cp in the presence of the test compound ([6]; 64 ppm) | Growth of E.C. 046 in the presence of the test compound ([7]; 6.4 ppm) | Growth of E.C. 046 in the presence of the test compound ([7]; 64 ppm) | also measured
CCC[C@@H]1C[C@@H](C(=O)N[C@@H]([C@H]2O[C@H](SC)[C@H](O)[C@@H](O)[C@H]2O)[C@@H](C)O)N(C)C1 [Lincomycin] | + | + | - | - | + | + | - | - | - | - | + | + | + | + | feed efficiency (% better or worse than control) [1, 9]: 12%; weight gain (% better or worse than control) [1, 9]: 20%
Clc1ccc(C2=Nc3cc(Cl)c(Cl)cc3NC2c2ccc(Cl)cc2Cl)c(Cl)c1 (centres unmarked) [Example 3, 2,3-di(2,4-dichlorophenyl)-6,7-dichloro-1,2-dihydroquinoxaline] |  |  |  |  |  |  |  |  |  |  |  |  |  |  | inhibition at 0.1 ppm [8]: 88.6%; inhibition at 10 ppm [8]: 98%
CC[C@H]1OC(=O)[C@H](C)[C@@H](O[C@H]2C[C@@](C)(OC)[C@@H](O)[C@H](C)O2)[C@H](C)[C@@H](O[C@@H]2O[C@H](C)C[C@H](N(C)C)[C@H]2O)[C@](C)(O)C[C@@H](C)C(=O)[C@H](C)[C@@H](O)[C@]1(C)O [Erythromycin] | + | + | - | - | + | - | + | - | - | - | + | + | + | - | 
Gentamicin | + | - | - | - | - | - | - | - | - | - | + | + | + | - | feed efficiency (% better or worse than control) [1, 10]: 15%; weight gain (% better or worse than control) [1, 10]: 32%
NC[C@H]1O[C@H](O[C@H]2[C@H](O)[C@@H](O[C@H]3O[C@H](CO)[C@@H](O)[C@H](N)[C@H]3O)[C@H](N)C[C@@H]2N)[C@H](O)[C@@H](O)[C@@H]1O [Kanamycin] | + | - | - | - | + | - | - | - | - | - | + | + | + | + | feed efficiency (% better or worse than control) [1, 11]: 19%; weight gain (% better or worse than control) [1, 11]: 14%
Clc1ccc(C2=Nc3ccccc3NC2c2ccc(Cl)cc2Cl)c(Cl)c1 (centres unmarked) [Example 6, 2,3-di(2,4-dichlorophenyl)-1,2-dihydroquinoxaline] |  |  |  |  |  |  |  |  |  |  |  |  |  |  | inhibition at 0.1 ppm [8]: 60%; inhibition at 10 ppm [8]: 100%
Polymyxin | - | - | + | - | - | - | + | - | - | - | + | + | - | - | feed efficiency (% better or worse than control) [1, 11]: 6%; weight gain (% better or worse than control) [1, 11]: -3%
CC[C@H](C)[C@H](N)C1=N[C@H](C(=O)N[C@@H](CC(C)C)C(=O)N[C@H](CCC(=O)O)C(=O)N[C@H](C(=O)N[C@H]2CCCCNC(=O)[C@H](CC(N)=O)NC(=O)[C@@H](CC(=O)O)NC(=O)[C@H](Cc3cnc[nH]3)NC(=O)[C@@H](Cc3ccccc3)NC(=O)[C@H]([C@@H](C)CC)NC(=O)[C@@H](CCCN)NC2=O)[C@@H](C)CC)CS1 [Bacitracin] ({Ileψ(thiazoline)Cys}-L[dE]IK[dOrn]I[dF]H[dD]N; lactam 4-C) | + | + | - | - | + | + | - | - | - | - | + | - | + | + | feed efficiency (% better or worse than control) [1, 9]: 19%; weight gain (% better or worse than control) [1, 9]: 25%; feed efficiency (% better or worse than control) [1, 12]: 32%; weight gain (% better or worse than control) [1, 12]: 40%
CC[C@H]1OC(=O)C[C@@H](O)[C@H](C)[C@@H](O[C@@H]2O[C@H](C)[C@@H](O[C@H]3C[C@@](C)(O)[C@@H](O)[C@H](C)O3)[C@H](N(C)C)[C@H]2O)[C@@H](CC=O)C[C@@H](C)C(=O)/C=C/C(C)=C/[C@@H]1CO[C@@H]1O[C@H](C)[C@@H](O)[C@@H](OC)[C@H]1OC [Tylosin] | + | + | - | - | + | + | - | - | - | - | + | - | + | + | 
CN(C)[C@@H]1C(O)=C(C(N)=O)C(=O)[C@@]2(O)C(O)=C3C(=O)c4c(O)ccc(Cl)c4[C@@](C)(O)[C@H]3C[C@@H]12 [Chlortetracycline] | + | - | - | - | - | - | + | - | - | - | + | + | + | - | 
CC1(C)S[C@@H]2[C@H](NC(=O)Cc3ccccc3)C(=O)N2[C@H]1C(=O)O [Penicillin] | + | - | - | - | + | - | + | - | - | - | + | + | + | - | feed efficiency (% better or worse than control) [1, 9]: 5.5%; weight gain (% better or worse than control) [1, 9]: 20%; feed efficiency (% better or worse than control) [1, 12]: 32%; weight gain (% better or worse than control) [1, 12]: 40%; feed efficiency (% better or worse than control) [1, 10]: 13%; weight gain (% better or worse than control) [1, 10]: 35%; feed efficiency (% better or worse than control) [1, 11]: 11%; weight gain (% better or worse than control) [1, 11]: 19%; feed efficiency (% better or worse than control) [1, 13]: 21%; weight gain (% better or worse than control) [1, 13]: 50%
